Patent publication US20150197492A1, “NOVEL INDENO[1,2-c]QUINOLIN-11-ONE DERIVATIVES, PREPARATION METHOD AND APPLICATION THEREOF” (National Defense Medical Center, priority 2014, published 2015)

Tests used:
Test in all cases: cells
Type in all cases: cell-based
NCI-H226 = test system: NCI-H226
NCI-H23 = test system: NCI-H23
SF-268 = test system: SF-268
HCT-116 = test system: HCT-116
SK-MEL-5 = test system: SK-MEL-5
HCT-15 = test system: HCT-15
IGROV1 = test system: IGROV1
SNB-75 = test system: SNB-75
TK-10 = test system: TK-10
MDA-MB-231/ATCC = test system: MDA-MB-231/ATCC
HOP-92 = details: Non-Small Cell Lung Cancer HOP-92
SK-OV-3 = test system: SK-OV-3
M14 = test system: M14
NCI-H460 = test system: NCI-H460
SK-MEL-2 = details: Melanoma SK-MEL-2
MCF7 = test system: MCF7
A549/ATCC = test system: A549/ATCC
K-562 = test system: K-562
RXF 393 = RXF 393 (Renal Cancer), 10 μM, 48 hours
U251 = details: CNS Cancer U251
HCC-2998 = test system: HCC-2998
COLO 205 = test system: COLO 205
RPMI-8226 = test system: RPMI-8226
LOX IMVI = details: Melanoma LOX IMV1
A498 = test system: A498
HL-60 (TB) = HL-60 (TB) (Leukemia), 10 μM, 48 hours
HOP-62 = test system: HOP-62
UO-31 = test system: UO-31
SF-539 = test system: SF-539
SW-620 = test system: SW-620
NCI/ADR-RES = test system: NCI/ADR-RES
[1] = Homo sapiens, Non-Small Cell Lung Cancer NCI-H23
[2] = Homo sapiens, CNS Cancer SF-268
[3] = Homo sapiens, Colon Cancer HCT-116
[4] = Homo sapiens, Breast Cancer MDA-MB-231/ATCC
[5] = Homo sapiens, Non-Small Cell Lung Cancer A549/ATCC
[6] = Homo sapiens, K562, Leukemia K-562
[7] = Homo sapiens, Non-Small Cell Lung Cancer HOP-62
[8] = Homo sapiens, CNS Cancer SF-539
[9] = Homo sapiens, Colon Cancer SW-620

CCN(CC)CCNc1nc2ccccc2c2c1-c1ccc(Cl)cc1C2=O [SJ-3, 6-(2-(Diethylamino)ethylamino)-9-chloro-11H-indeno[1,2-c]quinolin-11-one]
GI50 (NCI-H226; Homo sapiens, Non-Small Cell Lung Cancer NCI-H226): 1.88 µM | growth percentage (NCI-H226; NCI-H226 (Non-Small Cell Lung Cancer), 10 μM, 48 hours): 80.86% | GI50 (NCI-H23; [1]): 2.63 µM | LC50 (NCI-H23; [1]): 8.35 µM | growth percentage (NCI-H23; NCI-H23 (Non-Small Cell Lung Cancer), 10 μM, 48 hours): 80.63% | TGI (NCI-H23; Non-Small Cell Lung Cancer NCI-H23): 4.00 µM | TGI (SF-268; CNS Cancer SF-268): 3.27 µM | GI50 (SF-268; [2]): 17.7 µM | LC50 (SF-268; [2]): 6.52 µM | growth percentage (SF-268; SF-268 (CNS Cancer), 10 μM, 48 hours): 65.88% | TGI (HCT-116; Colon Cancer HCT-116): 3.19 µM | growth percentage (HCT-116; HCT-116 (Colon Cancer), 10 μM, 48 hours): 36.96% | GI50 (HCT-116; [3]): 6.19 µM | LC50 (50% lethal concentration) (HCT-116; [3]): 6.06 µM | GI50 (SK-MEL-5; Homo sapiens, Melanoma SK-MEL-5): 1.15 µM | TGI (SK-MEL-5; Melanoma SK-MEL-5): 2.61 µM | growth percentage (SK-MEL-5; SK-MEL-5 (Melanoma), 10 μM, 48 hours): 82.51% | TGI (HCT-15; Colon Cancer HCT-15): 3.51 µM | growth percentage (HCT-15; HCT-15 (Colon Cancer), 10 μM, 48 hours): 50.38% | GI50 (HCT-15; Homo sapiens, Colon Cancer HCT-15): 4.37 µM | CC50 (HCT-15; Homo sapiens, Colon Cancer HCT-15, read-out: LC50 (the source's name)): 7.5 µM | GI50 (IGROV1; Homo sapiens, IGROV-1, Ovarian Cancer IGROV1): 11.2 µM | CC50 (IGROV1; Homo sapiens, IGROV-1, Ovarian Cancer IGROV1, read-out: LC50 (the source's name)): 7.82 µM | growth percentage (IGROV1; IGROV1 (Ovarian Cancer), 10 μM, 48 hours): 43.43% | TGI (IGROV1; Ovarian Cancer IGROV1): 3.62 µM | TGI (SNB-75; CNS Cancer SNB-75): 2.35 µM | GI50 (SNB-75; Homo sapiens, CNS Cancer SNB-75): 3.25 µM | CC50 (SNB-75; Homo sapiens, CNS Cancer SNB-75, read-out: LC50 (the source's name)): 4.86 µM | growth percentage (SNB-75; SNB-75 (CNS Cancer), 10 μM, 48 hours): 71.52% | GI50 (TK-10; Homo sapiens, Renal Cancer TK-10): 24.6 µM | CC50 (TK-10; Homo sapiens, Renal Cancer TK-10, read-out: LC50 (the source's name)): 6.38 µM | TGI (TK-10; Renal Cancer TK-10): 3.70 µM | growth percentage (TK-10; TK-10 (Renal Cancer), 10 μM, 48 hours): 95.55% | TGI (MDA-MB-231/ATCC; Breast Cancer MDA-MB-231/ATCC): 2.71 µM | GI50 (MDA-MB-231/ATCC; [4]): 2.23 µM | LC50 (concentration giving 50% net cell kill) (MDA-MB-231/ATCC; [4]): 5.7 µM | growth percentage (MDA-MB-231/ATCC; MDA-MB-231/ATCC (Breast Cancer), 10 μM, 48 hours): 25.16% | GI50 (HOP-92; Homo sapiens): 3.08 µM | LC50 (HOP-92; Homo sapiens): 25.1 µM | TGI (HOP-92): 5.80 µM | GI50 (SK-OV-3; Homo sapiens, Ovarian Cancer SK-OV-3): 35.9 µM | CC50 (SK-OV-3; Homo sapiens, Ovarian Cancer SK-OV-3, read-out: LC50 (the source's name)): 17.2 µM | TGI (SK-OV-3; Ovarian Cancer SK-OV-3): 5.57 µM | growth percentage (SK-OV-3; SK-OV-3 (Ovarian Cancer), 10 μM, 48 hours): 84.20% | GI50 (M14; Homo sapiens, Melanoma M14): 16.5 µM | CC50 (M14; Homo sapiens, Melanoma M14, read-out: LC50 (the source's name)): 19.3 µM | growth percentage (M14; M14 (Melanoma), 10 μM, 48 hours): 76.44% | TGI (M14; Melanoma M14): 5.48 µM | GI50 (NCI-H460; Homo sapiens, Non-Small Cell Lung Cancer NCI-460): 5.15 µM | CC50 (NCI-H460; Homo sapiens, Non-Small Cell Lung Cancer NCI-460, read-out: LC50 (the source's name)): 6.74 µM | growth percentage (NCI-H460; NCI-H460 (Non-Small Cell Lung Cancer), 10 μM, 48 hours): 25.15% | TGI (NCI-H460; Non-Small Cell Lung Cancer NCI-460): 3.20 µM | GI50 (SK-MEL-2; Homo sapiens): 37.7 µM | CC50 (SK-MEL-2; Homo sapiens, read-out: LC50 (the source's name)): 10.4 µM | TGI (SK-MEL-2): 4.73 µM | TGI (MCF7; Breast Cancer MCF7): 2.60 µM | GI50 (MCF7; Homo sapiens, Breast Cancer MCF7): 0.44 µM | CC50 (MCF7; Homo sapiens, Breast Cancer MCF7, read-out: LC50 (the source's name)): 5.54 µM | growth percentage (MCF7; MCF7 (Breast Cancer), 10 μM, 48 hours): 12.70% | growth percentage (A549/ATCC; A549/ATCC (Non-Small Cell Lung Cancer), 10 μM, 48 hours): 51.79% | GI50 (A549/ATCC; [5]): 15.2 µM | LC50 (50% lethal concentration) (A549/ATCC; [5]): 6.72 µM | TGI (A549/ATCC; Non-Small Cell Lung Cancer A549/ATCC): 3.51 µM | GI50 (K-562; [6]): 8.75 µM | LC50 (lethal concentration, 50% cell kill) (K-562; [6]): 7.46 µM | growth percentage (K-562; K-562 (Leukemia), 10 μM, 48 hours): 45.29% | TGI (K-562; Leukemia K-562): 3.61 µM | growth percentage (RXF 393): 51.90% | TGI (U251): 3.06 µM | GI50 (U251; Homo sapiens, U-251): 11.4 µM | LC50 (concentration killing 50% of cells) (U251; Homo sapiens, U-251): 5.88 µM | TGI (HCC-2998; Colon Cancer HCC-2998): 4.08 µM | growth percentage (HCC-2998; HCC-2998 (Colon Cancer), 10 μM, 48 hours): 88.65% | GI50 (HCC-2998; Homo sapiens, Colon Cancer HCC-2998): > 100 µM | CC50 (HCC-2998; Homo sapiens, Colon Cancer HCC-2998, read-out: LC50 (the source's name)): 7.94 µM | growth percentage (COLO 205; COLO 205 (Colon Cancer), 10 μM, 48 hours): 45.69% | GI50 (COLO 205; Homo sapiens, Colon Cancer COLO 205): 2.41 µM | GI50 (RPMI-8226; Homo sapiens, Leukemia RPMI-8226): 20.2 µM | CC50 (RPMI-8226; Homo sapiens, Leukemia RPMI-8226, read-out: LC50 (the source's name)): 9.73 µM | TGI (RPMI-8226; Leukemia RPMI-8226): 4.31 µM | growth percentage (RPMI-8226; RPMI-8226 (Leukemia), 10 μM, 48 hours): 81.94% | GI50 (LOX IMVI; Homo sapiens, LOX IMVI): 6.04 µM | CC50 (LOX IMVI; Homo sapiens, LOX IMVI, read-out: LC50 (the source's name)): 6.02 µM | TGI (LOX IMVI): 3.04 µM | growth percentage (A498; A498 (Renal Cancer), 10 μM, 48 hours): 88.98% | GI50 (A498; Homo sapiens, Renal Cancer A498): 8.76 µM | CC50 (A498; Homo sapiens, Renal Cancer A498, read-out: LC50 (the source's name)): 50.8 µM | TGI (A498; Renal Cancer A498): 1.78 µM | growth percentage (HL-60 (TB)): 94.33% | growth percentage (HOP-62; HOP-62 (Non-Small Cell Lung Cancer), 10 μM, 48 hours): 24.86% | GI50 (HOP-62; [7]): 4.51 µM | LC50 (50% lethal concentration) (HOP-62; [7]): 5.74 µM | TGI (HOP-62; Non-Small Cell Lung Cancer HOP-62): 2.83 µM | GI50 (UO-31; Homo sapiens, Renal Cancer UO-31): 3.61 µM | CC50 (UO-31; Homo sapiens, Renal Cancer UO-31, read-out: LC50 (the source's name)): 6.48 µM | TGI (UO-31; Renal Cancer UO-31): 2.88 µM | growth percentage (UO-31; UO-31 (Renal Cancer), 10 μM, 48 hours): 25.86% | TGI (SF-539; CNS Cancer SF-539): 3.15 µM | GI50 (SF-539; [8]): 20.9 µM | LC50 (concentration giving 50% net cell kill) (SF-539; [8]): 5.86 µM | growth percentage (SF-539; SF-539 (CNS Cancer), 10 μM, 48 hours): 85.04% | TGI (SW-620; Colon Cancer SW-620): 3.06 µM | GI50 (SW-620; [9]): 5.12 µM | LC50 (concentration killing 50% of cells) (SW-620; [9]): 6.67 µM | growth percentage (SW-620; SW-620 (Colon Cancer), 10 μM, 48 hours): 43.72% | GI50 (NCI/ADR-RES; Homo sapiens, Ovarian Cancer NCI/ADR-RES): 19.3 µM | CC50 (NCI/ADR-RES; Homo sapiens, Ovarian Cancer NCI/ADR-RES, read-out: LC50 (the source's name)): 7.41 µM | growth percentage (NCI/ADR-RES; NCI/ADR-RES (Ovarian Cancer), 10 μM, 48 hours): 69.55% | TGI (NCI/ADR-RES; Ovarian Cancer NCI/ADR-RES): 3.67 µM
